ChEMBL document CHEMBL5634121, “Discovery of novel G9a/GLP covalent inhibitors for the treatment of triple-negative breast cancer” (Eur J Med Chem, 2023)
The source made the active and inactive calls. The rule behind the calls is not given here.

Experiments:
[1] = system: 4T1; experiment: Antiproliferative activity against mouse 4T1 cells incubated for 3 to 5 days by MTT assay; format: functional, cell-based
[2] = system: MDA-MB-231; experiment: Antiproliferative activity against human MDA-MB-231 cells incubated for 3 to 5 days by MTT assay; format: functional, cell-based
[3] = biological target: T1, Histone-lysine N-methyltransferase EHMT2 (Homo sapiens) (UniProt Q96KQ7); experiment: Inhibition of G9a (unknown origin) at 1 uM by AlphaLISA immunodetection assay relative to control
T1 sequence (whole entry): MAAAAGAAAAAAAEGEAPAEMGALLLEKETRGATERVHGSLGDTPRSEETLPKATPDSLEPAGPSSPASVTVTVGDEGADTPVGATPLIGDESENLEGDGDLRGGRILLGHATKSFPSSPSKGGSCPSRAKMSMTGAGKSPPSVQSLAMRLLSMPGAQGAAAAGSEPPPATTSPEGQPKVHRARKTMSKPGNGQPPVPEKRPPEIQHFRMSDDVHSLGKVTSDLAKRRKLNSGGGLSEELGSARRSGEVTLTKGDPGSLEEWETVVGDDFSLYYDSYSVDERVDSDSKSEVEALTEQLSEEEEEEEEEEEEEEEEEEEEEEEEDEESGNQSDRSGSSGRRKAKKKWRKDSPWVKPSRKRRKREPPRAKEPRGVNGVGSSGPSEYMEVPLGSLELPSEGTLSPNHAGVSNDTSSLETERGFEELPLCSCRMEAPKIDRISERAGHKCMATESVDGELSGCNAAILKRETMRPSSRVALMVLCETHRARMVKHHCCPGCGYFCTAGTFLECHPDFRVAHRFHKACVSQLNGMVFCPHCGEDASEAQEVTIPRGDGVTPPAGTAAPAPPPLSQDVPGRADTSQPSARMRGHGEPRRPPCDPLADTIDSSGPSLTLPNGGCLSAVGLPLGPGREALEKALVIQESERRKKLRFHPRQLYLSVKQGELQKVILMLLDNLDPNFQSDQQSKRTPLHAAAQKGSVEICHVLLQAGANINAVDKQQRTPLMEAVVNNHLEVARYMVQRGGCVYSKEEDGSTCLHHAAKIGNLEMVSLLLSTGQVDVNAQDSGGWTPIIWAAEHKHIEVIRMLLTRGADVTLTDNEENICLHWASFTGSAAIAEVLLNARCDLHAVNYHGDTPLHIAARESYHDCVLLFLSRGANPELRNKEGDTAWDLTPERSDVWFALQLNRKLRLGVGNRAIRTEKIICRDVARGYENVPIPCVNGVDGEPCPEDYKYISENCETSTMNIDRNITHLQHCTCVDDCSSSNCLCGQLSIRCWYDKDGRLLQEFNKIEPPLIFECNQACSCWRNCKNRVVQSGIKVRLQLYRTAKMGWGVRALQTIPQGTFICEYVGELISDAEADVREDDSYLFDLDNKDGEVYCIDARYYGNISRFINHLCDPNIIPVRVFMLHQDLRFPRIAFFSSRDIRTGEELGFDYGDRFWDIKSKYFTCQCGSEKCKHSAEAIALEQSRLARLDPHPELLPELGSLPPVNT

[4] = biological target: T2, Histone-lysine N-methyltransferase EHMT1 (Homo sapiens) (UniProt Q9H9B1); experiment: Inhibition of GLP (unknown origin) at 1 uM
T2 sequence (whole entry): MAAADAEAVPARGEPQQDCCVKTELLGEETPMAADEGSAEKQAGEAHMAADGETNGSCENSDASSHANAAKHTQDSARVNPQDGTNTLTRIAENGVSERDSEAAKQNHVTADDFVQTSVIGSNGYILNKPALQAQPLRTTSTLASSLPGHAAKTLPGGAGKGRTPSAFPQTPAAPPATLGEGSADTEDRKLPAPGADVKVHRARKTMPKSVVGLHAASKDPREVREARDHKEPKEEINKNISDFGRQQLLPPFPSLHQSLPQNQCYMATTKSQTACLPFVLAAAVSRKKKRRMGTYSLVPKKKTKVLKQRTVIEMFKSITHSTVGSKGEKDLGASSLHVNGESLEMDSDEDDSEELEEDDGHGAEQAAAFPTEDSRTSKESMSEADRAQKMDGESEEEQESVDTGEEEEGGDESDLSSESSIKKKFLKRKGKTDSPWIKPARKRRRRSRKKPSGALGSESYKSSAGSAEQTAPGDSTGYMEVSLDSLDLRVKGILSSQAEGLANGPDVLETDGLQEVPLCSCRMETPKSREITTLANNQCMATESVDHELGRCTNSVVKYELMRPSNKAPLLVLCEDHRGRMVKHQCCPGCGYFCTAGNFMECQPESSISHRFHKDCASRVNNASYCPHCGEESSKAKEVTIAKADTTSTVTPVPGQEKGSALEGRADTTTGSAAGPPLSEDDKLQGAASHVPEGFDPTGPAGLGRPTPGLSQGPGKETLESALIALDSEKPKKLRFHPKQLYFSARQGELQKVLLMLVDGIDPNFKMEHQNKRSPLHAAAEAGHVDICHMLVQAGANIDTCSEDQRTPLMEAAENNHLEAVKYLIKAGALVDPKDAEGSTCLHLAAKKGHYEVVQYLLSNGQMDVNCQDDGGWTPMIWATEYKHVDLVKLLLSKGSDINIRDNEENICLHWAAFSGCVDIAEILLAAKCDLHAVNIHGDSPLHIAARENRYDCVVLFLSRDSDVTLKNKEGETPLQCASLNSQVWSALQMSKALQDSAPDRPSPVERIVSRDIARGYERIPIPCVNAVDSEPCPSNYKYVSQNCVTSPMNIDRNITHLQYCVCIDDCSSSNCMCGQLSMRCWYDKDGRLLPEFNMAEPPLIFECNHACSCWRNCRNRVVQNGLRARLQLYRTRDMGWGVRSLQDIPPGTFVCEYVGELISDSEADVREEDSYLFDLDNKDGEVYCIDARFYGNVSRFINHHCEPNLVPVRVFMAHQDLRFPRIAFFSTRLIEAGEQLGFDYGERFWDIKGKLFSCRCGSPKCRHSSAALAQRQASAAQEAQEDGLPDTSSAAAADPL

[5] = biological target: T1, Histone-lysine N-methyltransferase EHMT2 (Homo sapiens); experiment: Inhibition of G9a (unknown origin)
[6] = system: MDA-MB-231; experiment: Antiproliferative activity against human MDA-MB-231 cells assessed as cell growth inhibition at 20 uM incubated for 1 day followed by compound washout and measured after 1 to 4 days; format: functional, cell-based
[7] = system: MDA-MB-231; experiment: Induction of apoptosis in human MDA-MB-231 cells assessed as early apoptotic cells at 20 uM incubated for 72 hrs by Annexin V and PI staining based flow cytometry analysis (reference value: 0.92 %); format: functional
[8] = system: MDA-MB-231; experiment: Induction of apoptosis in human MDA-MB-231 cells assessed as late apoptotic cells at 20 uM incubated for 72 hrs by Annexin V and PI staining based flow cytometry analysis (reference value: 0.45 %); format: functional
[9] = system: MDA-MB-231; experiment: Induction of apoptosis in human MDA-MB-231 cells assessed as viable cells at 20 uM incubated for 72 hrs by Annexin V and PI staining based flow cytometry analysis (reference value: 98.31 %); format: functional; conditions: read-out: Activity
[10] = biological target: T3, Histone-lysine N-methyltransferase EHMT1/EHMT2 (Homo sapiens) (UniProt Q9H9B1+Q96KQ7); experiment: Inhibition of G9a/GLP in human MDA-MB-231 cells assessed as reduction in H3K9 dimethylation at 20 uM incubated for 3 days by Western blotting analysis; format: cell-based; conditions: time 3.0 day
[11] = system: MDA-MB-231; experiment: Induction of apoptosis in human MDA-MB-231 cells assessed as necrotic cells at 20 uM incubated for 72 hrs by Annexin V and PI staining based flow cytometry analysis (reference value: 0.32 %); format: functional
[12] = Cytotoxicity against human L02 cells assessed as reduction in cell viability incubated for 2 days by MTT assay; format: toxicity, cell-based
[13] = biological target: T3, Histone-lysine N-methyltransferase EHMT1/EHMT2 (Homo sapiens); experiment: Inhibition of G9a/GLP in human MDA-MB-231 cells assessed as reduction in H3K9 dimethylation at 20 uM incubated for 1 day followed by compound washout and measured after 1 to 4 days; format: cell-based
[14] = system: MDA-MB-231; experiment: Antiproliferative activity against human MDA-MB-231 cells after 5 days by MTT assay; format: functional, cell-based; conditions: MDA-MB-231, 120 h
[15] = system: MDA-MB-231; experiment: Inhibition of colony formation in human MDA-MB-231 cells at 1 to 10 uM refreshed every 4 days for 12 days by crystal violet staining based assay; format: functional, cell-based; conditions: dose 1-10 µM, time 12.0 day
[16] = biological target: T3, Histone-lysine N-methyltransferase EHMT1/EHMT2 (Homo sapiens); experiment: Inhibition of G9a/GLP in human MDA-MB-231 cells assessed as reduction in H3K9 dimethylation incubated for 3 days by Western blotting analysis; format: cell-based; conditions: dose 2.5-20 µM, time 3.0 day
[17] = Mus musculus, 4T1, read-out: IC50

IC50 [1, 17] | IC50 [2] | inhibition [3] | Structure (SMILES) | also measured
8.96 µM | 1.6 µM | 38% | C=CC(=O)N1CC=C(c2nc(NC3CCN(Cc4ccccc4)CC3)c3cc(OC)c(OC)cc3n2)C1 | 
10.4 µM | 0.89 µM | 98% | C=CC(=O)N1CC=C(c2nc(NC3CCN(C)CC3)c3cc(OC)c(OC)cc3n2)C1 | inhibition [4]: Active
 |  |  | CCC(=O)N1CC=C(c2nc(NC3CCN(C)CC3)c3cc(OC)c(OC)cc3n2)C1 | inhibition [5]: inactive
> 30 µM | 2.26 µM | 56% | C=CC(=O)NC/C=C/c1nc(NC2CCN(C(C)C)CC2)c2cc(OC)c(OC)cc2n1 | 
 |  |  | CCC(=O)Nc1cccc(-c2nc(NC3CCN(C)CC3)c3cc(OC)c(OC)cc3n2)c1 | Activity [6]: inactive; inhibition [5]: inactive; Activity [7]: 8.69%; Activity [8]: 7.29%; viability at 20 µM [9]: 82.7%; inhibition [10]: Active; Activity [11]: 1.32%
28.6 µM | 10.5 µM |  | C=CC(=O)N1CCC=C(c2nc(NC3CCN(Cc4ccccc4)CC3)c3cc(OC)c(OC)cc3n2)C1 | 
> 30 µM | > 30 µM |  | C=CC(=O)NC/C=C/c1nc(NC2CCN(C)CC2)c2cc(OC)c(OC)cc2n1 | 
 |  |  | COc1cc2nc(N3CCCN(C)CC3)nc(NC3CCN(Cc4ccccc4)CC3)c2cc1OC | IC50 at 2 days [12]: 4.28 µM
8.94 µM | 3.52 µM | 98% | C=CC(=O)N1CCC=C(c2nc(NC3CCN(C)CC3)c3cc(OC)c(OC)cc3n2)C1 | inhibition [4]: Active
11.2 µM | 13.4 µM | 7% | C=CC(=O)N1CCC=C(c2nc(NC3CCN(C(C)C)CC3)c3cc(OC)c(OC)cc3n2)C1 | 
10.4 µM | 1.53 µM | 26% | C=CC(=O)Nc1cccc(-c2nc(NC3CCN(C(C)C)CC3)c3cc(OC)c(OC)cc3n2)c1 | 
25.6 µM | 18.3 µM |  | C=CC(=O)Nc1ccc(C)c(-c2nc(NC3CCN(C(C)C)CC3)c3cc(OC)c(OC)cc3n2)c1 | 
17.6 µM | 2.07 µM | 60% | C=CC(=O)NC/C=C/c1nc(NC2CCN(Cc3ccccc3)CC2)c2cc(OC)c(OC)cc2n1 | 
 | 0.99 µM |  | COc1cc2c(NC3CCN(C(C)C)CC3)nc(N3CCC(F)(F)CC3)nc2cc1OCCCN1CCCC1 | IC50 ([1]; 4t1): 1.55 µM; Activity [6]: inactive; inhibition [13]: inactive; IC50 [14]: 1 µM; Activity [7]: 72.11%; Activity [8]: 16.69%; viability at 20 µM [9]: 7.16%; IC50 at 2 days [12]: 6.99 µM; inhibition [15]: Active; Activity [11]: 4.04%; inhibition [16]: Dose-Dependent Effect
28.1 µM | 1.27 µM | 24% | C=CC(=O)N1CC=C(c2nc(NC3CCN(C(C)C)CC3)c3cc(OC)c(OC)cc3n2)C1 | 
 |  |  | CCC(=O)N1CCC=C(c2nc(NC3CCN(C)CC3)c3cc(OC)c(OC)cc3n2)C1 | inhibition [5]: inactive
